# Results: US20050032873A1, “3-Amino chroman and 2-amino tetralin derivatives” (Wyeth, priority 2003, published 2005)
# Where two headings read alike, the source gives them in different places.
# How the values were obtained:
# [1] = target: T1, serotonin transporter (Rattus norvegicus, UniProt P31652); experiment: 5-HT transporter affinity: displacement of 3H-paroxetine from male rat cortical membranes; assay type: binding; conditions: displacement of 3H-paroxetine; male rat cortical membranes; read-out: 5-HT Transporter Affinity Ki
# T1 construct: displace ^3H-paroxetine from male rat cortical membranes; from tissue; host or cells: male rat cortical membranes
# T1 sequence (P31652 whole entry): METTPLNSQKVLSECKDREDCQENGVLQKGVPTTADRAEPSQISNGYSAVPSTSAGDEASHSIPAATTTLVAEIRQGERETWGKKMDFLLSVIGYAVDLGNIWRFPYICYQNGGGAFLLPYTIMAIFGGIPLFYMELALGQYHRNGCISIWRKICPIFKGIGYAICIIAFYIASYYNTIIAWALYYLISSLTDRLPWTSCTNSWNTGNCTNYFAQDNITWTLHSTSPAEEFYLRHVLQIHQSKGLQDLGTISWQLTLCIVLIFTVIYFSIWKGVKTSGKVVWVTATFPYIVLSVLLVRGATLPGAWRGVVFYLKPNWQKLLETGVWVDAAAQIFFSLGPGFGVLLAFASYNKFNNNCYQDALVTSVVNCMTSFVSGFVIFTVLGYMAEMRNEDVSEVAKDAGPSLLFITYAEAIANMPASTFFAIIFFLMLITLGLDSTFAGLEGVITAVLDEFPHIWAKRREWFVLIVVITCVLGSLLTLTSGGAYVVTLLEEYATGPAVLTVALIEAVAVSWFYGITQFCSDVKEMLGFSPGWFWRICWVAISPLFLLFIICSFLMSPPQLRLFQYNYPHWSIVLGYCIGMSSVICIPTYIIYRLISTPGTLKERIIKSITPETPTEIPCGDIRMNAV
# [2] = target: T2, 5-HT1A receptor (Homo sapiens, UniProt P08908); experiment: cAMP accumulation assay, 5-HT1A function; assay type: cell-based; conditions: for EC50: cells marked EC50 (agonist); for Emax: read-out: 5-HT1A Function cAMP (Emax); for IC50: cells marked IC50 (antagonist), read-out: 5-HT1A Function cAMP IC50
# T2 sequence (P08908 1-422): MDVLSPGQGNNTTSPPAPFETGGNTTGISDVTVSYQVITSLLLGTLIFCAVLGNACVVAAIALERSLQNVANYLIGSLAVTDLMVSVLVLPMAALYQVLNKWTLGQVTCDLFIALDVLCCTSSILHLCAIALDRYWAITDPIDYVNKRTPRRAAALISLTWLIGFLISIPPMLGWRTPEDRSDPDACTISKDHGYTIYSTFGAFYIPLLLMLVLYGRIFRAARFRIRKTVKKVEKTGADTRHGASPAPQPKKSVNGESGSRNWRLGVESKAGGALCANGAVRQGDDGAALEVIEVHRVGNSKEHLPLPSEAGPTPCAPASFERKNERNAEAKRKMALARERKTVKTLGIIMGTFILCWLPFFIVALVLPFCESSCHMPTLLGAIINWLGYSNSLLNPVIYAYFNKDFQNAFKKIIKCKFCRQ
# [3] = target: T2, 5-HT1A receptor; experiment: 5-HT1A receptor affinity: displacement of [3H] 8-OH-DPAT; assay type: binding; parameters: expressed in transfected cells; conditions: for Ki: displacement of [3H] 8-OH-DPAT, CHO cells stably transfected with human 5-HT1A receptors, read-out: 5-HT1A Receptor Affinity Ki; for inhibition at 1 µM: read-out: 5-HT1A Receptor Affinity, % @ 1 μM
# [4] = target: T3, cloned human 5-HT1A receptors (Homo sapiens, UniProt P08908); experiment: 35S-GTPγS binding assay, 5-HT1A function; assay type: biochemical; conditions: for IC50: antagonist potency, reversal of 8-OH-DPAT, read-out: 5-HT1A Function GTPγS IC50; for EC50: agonist potency
# T3 construct: expressed in transfected cells
# T3 sequence (P08908 1-422): T2 sequence (P08908 1-422)
# [5] = maximum inhibitory effect, in brackets after IC50, read-out: 5-HT1A Function GTPγS (Imax)
# [6] = maximum stimulatory effect, in brackets after EC50, read-out: 5-HT1A Function GTPγS (Emax)
Structure (SMILES),Ki [1] [nM],EC50 [2] [nM],Emax ([2]; in brackets after EC50 or IC50) [%],Ki [3] [nM],further results
"NC(=O)c1ccc(F)c2c1CC(N(CCCCn1ccc3cc(F)ccc31)CC1CC1)CO2 (stereo not shown) [Compound 199, 3-{(Cyclopropylmethyl)[4-(5-fluoro-1H-indol-1-yl)butyl]amino}-8-fluorochromane-5-carboxamide]",77,74.7,72,5.44,–
"CC(Cc1c[nH]c2ccc(F)cc12)CN(CC1CC1)[C@H]1COc2c(F)ccc(C(N)=O)c2C1 (single isomer, unassigned) [Compound 155b]",144,–,–,128,IC50 [2]: 846 nM; 5-HT1A Function cAMP (Emax) ([2]; in brackets after EC50 or IC50): 0%
"CCN(CCCCn1ccc2c(F)cccc21)C1COc2c(F)ccc(C(N)=O)c2C1 (stereo not shown) [Compound 201, 3-{Ethyl[4-(4-fluoro-1H-indol-1-yl)butyl]amino}-8-fluorochromane-5-carboxamide]",95,210,92,42.7,–
"CCN(CCCc1c[nH]c2ccc(OC)cc12)C1COc2c(F)ccc(C(N)=O)c2C1 (stereo not shown) [Compound 105, 3-{ethyl[3-(5-methoxy-1H-indol-3-yl)propyl]amino}-8-fluorochromane-5-carboxamide]",236,96.7,81,24.3,–
"CCCN(CCCCc1coc2c(OC)cccc12)[C@H]1COc2c(F)ccc(C(N)=O)c2C1 [Compound 172, (3R)-8-fluoro-3-[[4-(7-methoxy-1-benzofuran-3-yl)butyl](propyl)amino]chromane-5-carboxamide]",516,–,0,497,IC50 [2]: 379 nM
"CCN(CCCCn1ccc2ccc(F)cc21)C1COc2c(F)ccc(C(N)=O)c2C1 (stereo not shown) [Compound 193, 3-{Ethyl[4-(6-fluoro-1H-indol-1-yl)butyl]amino}-8-fluorochromane-5-carboxamide]",15.6,117,89,21.6,–
"CC(CCc1c[nH]c2c(F)cc(F)cc12)N(CC1CC1)C1COc2c(F)ccc(C(N)=O)c2C1 (single isomer, unassigned) [Compound 154d, 3-{(cyclopropylmethyl)[3-(5,7-difluoro-1H-indol-3-yl)-1-methylpropyl]amino}-8-fluorochromane-5-carboxamide]",4.81,–,–,–,"IC50 [4]: 7070 nM; 5-HT1A Function GTPγS (Imax) ([4]; maximum inhibitory effect, in brackets after IC50): 71%; inhibition at 1 µM [3]: 2%"
"COC(=O)c1ccc(F)c2c1C[C@@H](N(CCCCc1c[nH]c3ccc(F)cc13)C1CCC1)CO2 [Compound 58b, Methyl (3R)-3-{cyclobutyl[4-(5-fluoro-1H-indol-3-yl)butyl]amino}-8-fluorochromane-5-carboxylate]",29.2,–,–,138,"IC50 [4]: 626 nM; Emax [4, 5]: 94%"
"NC(=O)c1ccc(F)c2c1OCC(NCCCCc1c[nH]c3ccc(F)cc13)C2 (stereo not shown) [Compound 123, 5-fluoro-3-{[4-(5-fluoro-1H-indol-3-yl)butyl]amino}chromane-8-carboxamide]",3.81,–,–,280,"EC50 [4]: 2260 nM; Emax [4, 6]: 100%"
"CCCCN(CCCc1coc2c(OC)cccc12)C1COc2c(F)ccc(C(N)=O)c2C1 (stereo not shown) [Compound 166, 3-{butyl[3-(7-methoxy-1-benzofuran-3-yl)propyl]amino}-8-fluorochromane-5-carboxamide]",498,–,0,14.2,IC50 [2]: 301 nM
"NC(=O)c1ccc(F)c2c1OCC(NCCCc1c[nH]c3c(F)cc(F)cc13)C2 (stereo not shown) [Compound 128, 3-{[3-(5,7-difluoro-1H-indol-3-yl)propyl]amino}-5-fluorochromane-8-carboxamide]",54.5,–,–,–,"EC50 [4]: 608 nM; Emax [4, 6]: 59%; inhibition at 1 µM [3]: 47%"
"O=C(NC1CC1)c1cccc2c1CC(N(CCCc1c[nH]c3c(F)cc(F)cc13)C1CCC1)CO2 (stereo not shown) [Compound 142, 3-{cyclobutyl[3-(5,7-difluoro-1H-indol-3-yl)propyl]amino}-N-cyclopropylchromane-5-carboxamide]",3.88,–,–,4.03,"EC50 [4]: 122 nM; Emax [4, 6]: 54%"
"NC(=O)c1ccc(F)c2c1CC(N(CCCCn1ccc3cc(F)ccc31)C1CCC1)CO2 (stereo not shown) [Compound 200, 3-{Cyclobutyl[4-(5-fluoro-1H-indol-1-yl)butyl]amino}-8-fluorochromane-5-carboxamide]",241,–,–,10.8,"IC50 [4]: 1110 nM; Emax [4, 5]: 100%"
